Results on one compound are retold here after patent US20240066027A1 (DOMAIN THERAPEUTICS, priority 2020, published 2024).

The target in data set [1] is T1, human PAR-2 (hPAR-2) receptor expressed in HEK-293 T cells in an endogenous manner (Homo sapiens, UniProt P55085).
T1 construct: human PAR-2 (hPAR-2) receptor expressed in HEK-293 T cells in an endogenous manner; endogenous in cells; host or cells: HEK-293 T cells
T1 sequence (P55085 26-397): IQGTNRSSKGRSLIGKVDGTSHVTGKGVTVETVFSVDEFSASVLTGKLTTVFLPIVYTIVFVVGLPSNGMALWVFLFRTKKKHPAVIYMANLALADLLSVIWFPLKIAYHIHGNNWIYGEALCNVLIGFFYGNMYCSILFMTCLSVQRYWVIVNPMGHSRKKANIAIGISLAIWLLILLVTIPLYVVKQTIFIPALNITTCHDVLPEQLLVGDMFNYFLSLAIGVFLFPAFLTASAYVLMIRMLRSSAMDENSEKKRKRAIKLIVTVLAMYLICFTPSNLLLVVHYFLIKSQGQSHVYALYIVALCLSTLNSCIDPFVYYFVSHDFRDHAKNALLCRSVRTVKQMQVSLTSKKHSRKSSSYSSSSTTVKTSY
Kind of data set: In vitro human PAR-2 functional antagonist activity using calcium assays (Fluo4AM, FLIPR Tetra). Conditions: HEK-293 T cells stimulated by an EC80 of the 2-Furoyl-LIGRLO-NH2 peptide after 10 min incubation with compound; 20 concentrations, duplicate, two independent experiments. The format is cell-based. The essentials: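 Antagonist activity was taken as the decrease in the calcium response to an EC80 of 2-Furoyl-LIGRLO-NH2, measured over 5 min. The agonist was added after a 10 min compound-alone step on the same plate. The HEK-293 T cells express PAR-2 endogenously and were loaded with 1 μM Fluo4AM. Signals were referenced to buffer and EC80-alone controls.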

Structures are written as SMILES.

One may read the IC50 as the concentration that gives 50% inhibition. The term melting point denotes the temperature of the solid-liquid transition. The compound `CC(C)Cn1cc(-c2cccc(OC(F)(F)F)c2)c2ccc(C(=O)N3CCNC(=O)C3(C)C)nc21` [Example 57, 4-[1-isobutyl-3-[3-(trifluoromethoxy)phenyl]pyrrolo[2,3-b]pyridine-6-carbonyl]-3,3-dimethyl-piperazin-2-one] returned a melting point of 202 to 204 °C. The IC50 in data set [1] is 0.02 to 10 µM.
